target: T1, hPRDM9 (amino acids 195-385) (Homo sapiens, UniProt Q9NQV7); assay: PRDM9 biochemical assay (radiometric, 3[H] methyl transfer from SAM to biotinylated histone H3 peptide); settings: 1 nM hPRDM9, 1 μM biotinylated H3(1-25)K4 peptide, 5 μM 3[H]-SAM, 55 μM un-labeled SAM, 25° C., 30 minutes
T1 construct: 1.25 nM hPRDM9 (amino acids 195-385)
T1 sequence (Q9NQV7 195-385): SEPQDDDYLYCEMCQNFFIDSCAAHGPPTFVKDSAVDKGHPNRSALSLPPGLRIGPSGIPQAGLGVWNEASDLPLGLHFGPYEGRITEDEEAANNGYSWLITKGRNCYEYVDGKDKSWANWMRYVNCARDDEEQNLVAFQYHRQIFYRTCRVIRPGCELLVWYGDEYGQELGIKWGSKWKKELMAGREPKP
Method: The PRDM9 biochemical assay was carried out using a radiometric format involving the transfer of ^3[H] methyl group from S-adenosyl methionine (SAM) to a biotinylated histone H3 peptide (H3(1-25)K4). 10 mM compounds in DMSO were diluted 20 fold in assay buffer (10 mM Tris-HCl, pH 8.5, 10 mM DTT, and 0.01% Triton X-100) before adding […] to a well in a 384 well polypropylene microplate plate and adding 8 μl of reaction mix (1.25 nM hPRDM9 (amino acids 195-385), 1.25 μM biotinylated H3 peptide in assay buffer). The ^3[H]-SAM and cold SAM stock solutions were diluted to 50 μM and 550 μM respectively in assay buffer before aliquoting 1 μl of 50 μM ^3[H]-SAM, 550 μM SAM into each well to initiate the reaction. The assay was performed at 25° C. at the final concentrations of 1 nM hPRDM9, 1 μM peptide, 5 μM ^3[H]-SAM, and 55 μM un-labeled SAM in assay buffer. The reaction was quenched after 30 minutes by adding 25 μl 7.5 M Guanidine-HCl. Quenched reactions were transferred to streptavidin coated Flashplates, diluted two fold in assay buffer, incubated for 1 hour, and read on a Perkin Elmer Topcount instrument. Compound activity was expressed relative to activity of 0.5% (v/v) DMSO treated samples and fit to a four parameter logistic equation to determine IC50 values.

| IC50 | Structure (SMILES) |
| --- | --- |
| 36.4 µM | Cc1cc(N2CCC3C(Nc4nc(-c5cc(Cl)cc(Cl)c5)no4)CCC32)ccn1 (mixture of isomers) [Compound 27] |
| 13.3 µM | Cc1cc(N[C@@H]2[C@@H](O)CN(c3nc(-c4cc(Cl)cc(Cl)c4)no3)[C@H]2C)ccn1 (racemic) [Compound 29] |
| 27.8 µM | Cc1cc(N2C[C@H]3CCN(c4nc(-c5cc(Cl)cc(Cl)c5)no4)C[C@H]3C2)ccn1 (racemic) [Compound 36] |
| 16.4 µM | Cc1cc(N[C@H]2CC[C@H](Nc3nc(-c4cc(Cl)cc(Cl)c4)no3)C2)ccn1 (racemic) [Compound 50] |
| 5.16 µM | Cc1cc(N2CC[C@@H]3CN(c4nc(-c5cc(Cl)cc(Cl)c5)no4)C[C@@H]3C2)ccn1 [Compound 1, 3-(3,5-dichlorophenyl)-5-((3aS,7aS)-5-(2-methylpyridin-4-yl)hexahydro-1H-pyrrolo[3,4-c]pyridin-2(3H)-yl)-1,2,4-oxadiazole] |
| 0.36 µM | Cc1cc(N2CCC3(CCN(c4nc(-c5cc(Cl)cc(Cl)c5)no4)C3)C2)ccn1 (stereo not drawn) [Compound 4] |
| 11.3 µM | Cc1cc(N2CCC(C3CCCN(c4nc(-c5cc(Cl)cc(Cl)c5)no4)C3)CC2)ccn1 (stereo not drawn) [Compound 6] |
| 4.85 µM | Cc1cc(NC2CCCC(Nc3nc(-c4cc(Cl)cc(Cl)c4)no3)CC2)ccn1 (stereo not drawn) [Compound 7] |
| 0.804 µM | Cc1cc(N2CCC(F)(CNc3nc(-c4cc(Cl)cc(Cl)c4)no3)CC2)ccn1 [Compound 8] |
| 19.7 µM | Cc1cc(NC(C)C2CCCN(c3nc(-c4cc(Cl)cc(Cl)c4)no3)C2)ccn1 (stereo not drawn) [Compound 11] |
| 41.5 µM | Cc1cc(NC[C@H]2CCCN2c2nc(-c3cc(Cl)cc(Cl)c3)no2)ccn1 [Compound 12] |
| 31.6 µM | Cc1cc(N2CCC3(CC2)CCN(c2nc(-c4cc(Cl)cc(Cl)c4)no2)CC3)ccn1 [Compound 15] |
| 11.5 µM | Cc1cc(NCCCN(C)c2nc(-c3cc(Cl)cc(Cl)c3)no2)ccn1 [Compound 16] |
| 7.79 µM | Cc1cc(N2CCC3(CCN(c4nc(-c5cc(Cl)cc(Cl)c5)no4)CC3)C2)ccn1 [Compound 20] |
| 18.6 µM | Cc1cc(N2CCC(CCNc3nc(-c4cc(Cl)cc(Cl)c4)no3)CC2)ccn1 [Compound 22] |
| 17.8 µM | CCC1(CNc2ccnc(C)c2)CCN(c2nc(-c3cc(Cl)cc(Cl)c3)no2)C1 (stereo not drawn) [Compound 23] |
| 5.34 µM | Cc1cc(N2CC3CC(Nc4nc(-c5cc(Cl)cc(Cl)c5)no4)CC3C2)ccn1 (stereo not drawn) [Compound 24] |
| 0.0225 µM | Cc1cc(N2CCC3(CCC(=O)N(c4nc(-c5cc(Cl)cc(Cl)c5)no4)C3)CC2)ccn1 [Compound 28] |
| 28.2 µM | Cc1cc(NC2CCCC(Nc3nc(-c4cc(Cl)cc(Cl)c4)no3)C2)ccn1 (stereo not drawn) [Compound 30] |
| 2.21 µM | CCC1(CNc2nc(-c3cc(Cl)cc(Cl)c3)no2)CCN(c2ccnc(C)c2)CC1 [Compound 32] |
| 1.52 µM | Cc1cc(N2CCC3(CCCC3Nc3nc(-c4cc(Cl)cc(Cl)c4)no3)CC2)ccn1 (stereo not drawn) [Compound 33] |

| IC50 | Structure (SMILES) |
| --- | --- |
| 2.2 µM | Cc1cc(N2CCC3(CC2)CC3Nc2nc(-c3cc(Cl)cc(Cl)c3)no2)ccn1 (stereo not drawn) [Compound 34] |
| 15.5 µM | Cc1cc(NCC2(O)CCN(c3nc(-c4cc(Cl)cc(Cl)c4)no3)C2)ccn1 (stereo not drawn) [Compound 37] |
| 0.16 µM | Cc1cc(N2CCC(CN(C)c3nc(-c4cc(Cl)cc(Cl)c4)no3)CC2)ccn1 [Compound 38] |
| 12.3 µM | Cc1cc(N2CCC3CN(c4nc(-c5cc(Cl)cc(Cl)c5)no4)CC32)ccn1 (stereo not drawn) [Compound 39] |
| 0.0803 µM | Cc1cc(N2CCC3(CC2)CN(c2nc(-c4cc(Cl)cc(Cl)c4)no2)CCO3)ccn1 [Compound 40] |
| 3.92 µM | Cc1cc(N2CCC3(CCCN3c3nc(-c4cc(Cl)cc(Cl)c4)no3)C2)ccn1 (stereo not drawn) [Compound 41] |
| 35.8 µM | Cc1cc(N2CCCC(Nc3nc(-c4cc(Cl)cc(Cl)c4)no3)CC2)ccn1 (stereo not drawn) [Compound 42] |
| 13.3 µM | Cc1cc(NCC(F)CNc2nc(-c3cc(Cl)cc(Cl)c3)no2)ccn1 (stereo not drawn) [Compound 43] |
| 0.5 µM | Cc1cc(N2CC(C3CCCCN3c3nc(-c4cc(Cl)cc(Cl)c4)no3)C2)ccn1 (stereo not drawn) [Compound 44] |
| 0.34 µM | Cc1cc(N2CC3CN(c4nc(-c5cc(Cl)cc(Cl)c5)no4)CC3C2)ccn1 (stereo not drawn) [Compound 45] |
| 40.2 µM | Cc1cc(NCC2CN(c3nc(-c4cc(Cl)cc(Cl)c4)no3)C2)ccn1 [Compound 49] |
| 7.29 µM | Cc1cc(N2CCC(N(c3nc(-c4cc(Cl)cc(Cl)c4)no3)C3CC3)CC2)ccn1 [Compound 51] |
| 29.4 µM | Cc1cc(N2CC(CCNc3nc(-c4cc(Cl)cc(Cl)c4)no3)C2)ccn1 [Compound 52] |
| 26.1 µM | Cc1cc(NC2CCC(Nc3nc(-c4cc(Cl)cc(Cl)c4)no3)CC2)ccn1 (stereo not drawn) [Compound 54] |
| 28 µM | Cc1cc(N2CCC(O)(CNc3nc(-c4cc(Cl)cc(Cl)c4)no3)C2)ccn1 (stereo not drawn) [Compound 56] |
| 24 µM | Cc1cc(N(C)CCCCNc2nc(-c3cc(Cl)cc(Cl)c3)no2)ccn1 [Compound 58] |
| 3.58 µM | Cc1cc(NCC2(C)CCN(c3nc(-c4cc(Cl)cc(Cl)c4)no3)CC2)ccn1 [Compound 64] |
| 6.2 µM | Cc1cc(N2CCC(C3CCN(c4nc(-c5cc(Cl)cc(Cl)c5)no4)CC3)CC2)ccn1 [Compound 65] |
| 0.47 µM | Cc1cc(NC2CCC3CN(c4nc(-c5cc(Cl)cc(Cl)c5)no4)CC3C2)ccn1 (stereo not drawn) [Compound 66] |
| 4.44 µM | Cc1cc(N2CCC(CNc3nc(-c4cc(Cl)cc(Cl)c4)no3)(c3ccccc3)CC2)ccn1 [Compound 67] |
| 2.8 µM | Cc1cc(N2CC3CCCN(c4nc(-c5cc(Cl)cc(Cl)c5)no4)C3C2)ccn1 (stereo not drawn) [Compound 68] |

| IC50 | Structure (SMILES) |
| --- | --- |
| 7.04 µM | Cc1cc(NC2CCC(O)(CNc3nc(-c4cc(Cl)cc(Cl)c4)no3)CC2)ccn1 (stereo not drawn) [Compound 69] |
| 6.9 µM | Cc1cc(N2CC3CCC(Nc4nc(-c5cc(Cl)cc(Cl)c5)no4)CC3C2)ccn1 (stereo not drawn) [Compound 70] |
| 27.7 µM | Cc1cc(N2CCC3CN(c4nc(-c5cc(Cl)cc(Cl)c5)no4)CCC32)ccn1 (stereo not drawn) [Compound 71] |
| 1.13 µM | Cc1cc(NC2CCCN(c3nc(-c4cc(Cl)cc(Cl)c4)no3)CC2)ccn1 (stereo not drawn) [Compound 74] |
| 2.63 µM | Cc1cc(N2CCC(C3CCN(c4nc(-c5cc(Cl)cc(Cl)c5)no4)C3)CC2)ccn1 (stereo not drawn) [Compound 77] |
| 19.1 µM | Cc1cc(N2CCN(c3nc(-c4cc(Cl)cc(Cl)c4)no3)CC2)ccn1 [Compound 79] |
| 2.83 µM | Cc1cc(N2CCC3(CC2)CC3Nc2nc(-c3cc(Cl)cc(Cl)c3)no2)ccn1 (stereo not drawn) [Compound 80] |
| 13.3 µM | Cc1cc(NC[C@H]2CCN(c3nc(-c4cc(Cl)cc(Cl)c4)no3)C2)ccn1 [Compound 81] |
| 0.08 µM | COc1cc(OC)cc(-c2nc(N3CCCC4(CCN(c5ccnc(C)c5)CC4)C3)no2)c1 [Compound 85, 5-(3,5-dimethoxyphenyl)-3-(9-(2-methylpyridin-4-yl)-2,9-diazaspiro[5.5]undecan-2-yl)-1,2,4-oxadiazole] |
| 0.28 µM | COc1cc(Cl)cc(-c2nc(N3CCCC4(CCN(c5ccnc(C)c5)CC4)C3)no2)c1 [Compound 86] |
| 0.47 µM | COc1cccc(-c2nc(N3CCCC4(CCN(c5ccnc(C)c5)CC4)C3)no2)c1 [Compound 87] |
| 0.06 µM | Cc1cc(N2CCC3(CCCN(c4noc(-c5cccc(Cl)c5)n4)C3)CC2)ccn1 [Compound 88] |
| 0.08 µM | CCN1CCN(c2noc(-c3cc(OC)cc(OC)c3)n2)CC12CCN(c1ccnc(C)c1)CC2 [Compound 89] |
| 0.118 µM | COc1cc(OC)cc(-c2nc(N3CCN(C)C4(CCN(c5ccnc(C)c5)CC4)C3)no2)c1 [Compound 90] |
| 0.15 µM | COc1cc(OC(F)(F)F)cc(-c2nc(N3CCCC4(CCN(c5ccnc(C)c5)CC4)C3)no2)c1 [Compound 91, 5-(3-methoxy-5-(trifluoromethoxy)phenyl)-3-(9-(2-methylpyridin-4-yl)-2,9-diazaspiro[5.5]undecan-2-yl)-1,2,4-oxadiazole] |
| 0.069 µM | Cc1cc(N2CCC3(CCCN(c4noc(-c5cc(OC(F)F)cc(OC(F)F)c5)n4)C3)CC2)ccn1 [Compound 92] |
| 0.06 µM | COc1cc(OC)cc(-c2noc(N3CCN(CC(F)(F)F)C4(CCN(c5ccnc(C)c5)CC4)C3)n2)c1 [Compound 93, 3-(3,5-dimethoxyphenyl)-5-(9-(2-methylpyridin-4-yl)-1-(2,2,2-trifluoroethyl)-1,4,9-triazaspiro[5.5]undecan-4-yl)-1,2,4-oxadiazole] |
| 0.109 µM | COCCN1CCN(c2nc(-c3cc(OC)cc(OC)c3)no2)CC12CCN(c1ccnc(C)c1)CC2 [Compound 94] |
| 0.044 µM | Cc1cc(N2CCC3(CC2)CN(c2nc(-c4cc(OC5CC5)cc(OC5CC5)c4)no2)CCN3C)ccn1 [Compound 95] |
| 0.103 µM | CCOc1cc(OCC)cc(-c2noc(N3CCN(C)C4(CCN(c5ccnc(C)c5)CC4)C3)n2)c1 [Compound 96] |
| 1.37 µM | Cc1cc(N2CCC3(CC2)CN(c2nc(-c4cc(OC(C)C)cc(OC(C)C)c4)no2)CCN3C)ccn1 [Compound 97] |

— patent publication US20190374526A1, “Substituted Heterocyclic Compounds as Inhibitors of PRDM9” (Merck Sharp & Dohme Corp., priority 2018, published 2019)
